Legend:
human dermal fibroblasts [1] = assay: Collagen secretion, colorimetric assay; format: cell-based; parameters: key to Stimulates collagens / Inhibits collagens: P = active; U = useful; conditions: for Inhibits collagens / Stimulates collagens: summary of peptide uses
Method: Effect of Tb4 and peptides on collagen secretion • Human dermal fibroblasts (Fb) were cultured to 80% confluence • Cells were treated with 1 μg/ml Tb4 or peptides for 24, 48, or 72 hours. Cells were treated once/day. • Culture supernatants (n=3, experiments repeated 5 times) were assayed for collagen secretion using a colorimetric assay that detects collagen types I, II, III, IV and V, and possibly VII

L1 = assay: Stimulation of L1 production (summary table); parameters: key: P = active; U = useful; conditions: summary of peptide uses
neuron survival = assay: Promotion of neuron survival (summary table); parameters: key: P = active; U = useful; conditions: summary of peptide uses
IKKb = target: T1, IKKb (Homo sapiens, UniProt O14920); assay: Cell-free IkBa phosphorylation ELISA (NFkB signaling pathway); format: biochemical; parameters: key to Inhibits IkBa phosphorylation: P = active; U = useful
T1 sequence (O14920 1-756): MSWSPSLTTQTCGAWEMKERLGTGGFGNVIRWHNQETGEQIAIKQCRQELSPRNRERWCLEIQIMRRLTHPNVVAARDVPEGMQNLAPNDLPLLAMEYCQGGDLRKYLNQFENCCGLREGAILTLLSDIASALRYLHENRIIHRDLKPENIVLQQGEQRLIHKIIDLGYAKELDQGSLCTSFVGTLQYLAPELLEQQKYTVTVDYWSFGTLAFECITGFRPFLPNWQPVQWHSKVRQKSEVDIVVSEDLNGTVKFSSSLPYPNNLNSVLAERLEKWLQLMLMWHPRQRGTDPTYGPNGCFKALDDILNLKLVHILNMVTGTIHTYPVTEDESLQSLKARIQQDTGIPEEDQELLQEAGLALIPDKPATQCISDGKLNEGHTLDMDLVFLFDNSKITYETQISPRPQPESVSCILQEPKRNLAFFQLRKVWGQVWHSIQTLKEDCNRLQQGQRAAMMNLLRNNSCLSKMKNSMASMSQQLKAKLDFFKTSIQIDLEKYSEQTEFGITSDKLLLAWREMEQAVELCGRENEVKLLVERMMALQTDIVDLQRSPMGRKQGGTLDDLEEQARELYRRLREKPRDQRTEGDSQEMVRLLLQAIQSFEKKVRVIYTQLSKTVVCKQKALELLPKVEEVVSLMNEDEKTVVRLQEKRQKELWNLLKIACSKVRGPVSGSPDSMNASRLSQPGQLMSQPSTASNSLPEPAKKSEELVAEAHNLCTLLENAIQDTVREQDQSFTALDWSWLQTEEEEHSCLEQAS
Method: Effect of Tb4 and peptides on the NFkB signaling pathway • Cell-free assay • Prepared 1.0, 0.1, and 0.01 ng/ml solutions of Tb4 or peptides in kinase buffer supplied with kit • Added 10 μl of the solutions to wells of a 96-well plate coated with lkBa • IKKb (20 mU) was added to wells • 90 μl kinase reaction buffer (containing ATP) was added to the wells • ELISA to detect phosphorylated lkBa

[2] = test system: tissue damage caused by UV radiation; assay: UV radiation tissue damage (summary table); parameters: key: P = active; U = useful; conditions: summary of peptide uses
neurite outgrowth = assay: Promotion of neurite outgrowth (summary table); parameters: key: P = active; U = useful; conditions: summary of peptide uses
cell migration = assay: Stimulation of migration (summary table); format: cell-based; parameters: key: P = active; U = useful; conditions: summary of peptide uses
human dermal fibroblasts [3] = assay: Elastin secretion, colorimetric assay; format: cell-based; parameters: key to Stimulates Elastin: P = active; U = useful; conditions: for Secretion of elastin: dermal Fb, 1 μg/ml once/day, 24, 48, or 72 hours; for Stimulates Elastin: summary of peptide uses
Method: Effect of Tb4 and peptides on elastin secretion • Human dermal fibroblasts (Fb) were cultured to 80% confluence • Cells were treated with 1 μg/ml Tb4 or peptides for 24, 48, or 72 hours. Cells were treated once/day. • Culture supernatants (n=3, experiments repeated 6 times) were assayed for elastin secretion using a colorimetric assay • Data was analyzed using the t-test

human dermal fibroblasts [4] = assay: LDH cytotoxicity assay in human dermal fibroblasts exposed to cytotoxic agents; format: cell-based; parameters: key to Protects from cytotoxicity: P = active; U = useful; conditions: for Protects from cytotoxicity: summary of peptide uses
Method: Dose Response Analysis of Peptide 3A • Human dermal fibroblasts (Fb, Cascade Biologics, OR) were cultured to 80% confluence • 2 ml CHX (0.002%) in basal medium ±1 μg/ml Tb4 or 1.0, 0.1, 0.01, or 0.001 μg/ml peptide 3A was added to Fb for 1, 2, 3, or 4 hours • 100 μl culture medium (n=4) was added to 100 μl LDH reagent and incubated at room temperature for 20 minutes • OD500 nm was read and averages ±SEM were calculated • Data was analyzed with probability of p≦0.05

human dermal Fb = assay: CHX-induced apoptosis (APOPercentage dye) in human dermal Fb; format: cell-based; parameters: key to Inhibits apoptosis: P = active; U = useful; conditions: summary of peptide uses
Method: Effect of Tb4 and Peptide 3A on CHX-induced apoptosis • Human dermal Fb were cultured to 80% confluence • Fb were treated with 0.002% CHX+1 μg/ml Tb4 or peptide 3A, 4A or 6A for 1.5 hours • APOPercentage “dye” was added to the Fb cultures at a 1:50 dilution for an additional 30 minutes • Excess dye was washed from the cells, and digital images were captured. Cells dyed red were apoptotic • Adobe Photoshop was used to calculate the number of red pixels in six digitized images for each treatment • Statistical analysis was done using the t-test

[5] = test system: TNF-a-stimulated IL8 secretion; assay: Suppression of inflammation (summary table; IL-8 secretion); format: cell-based, human; parameters: key: P = active; U = useful; conditions: summary of peptide uses
Method: Analysis of IL-8 Secretion • Human corneal epithelial cells or dermal Fb were cultured to 80% confluence • Cells were pre-treated with 1 μg/ml Tb4 or peptides for one hour • Cells were stimulated with 10 ng/ml TNF-a in the presence or absence of Tb4 or peptides • Culture medium was analyzed for secreted IL-8 by ELISA (n=3, experiments repeated twice) • Data was analyzed using the t-test

[6] = test system: Transformed human corneal epithelial cells (HCET); assay: Collagen type IV secretion ELISA; format: cell-based; parameters: key to Stimulates collagen IV: P = active; U = useful
Method: Effect of Tb4 and peptides on collagen type IV secretion • Transformed human corneal epithelial cells (HCET) were cultured to 80% confluence • Cells were treated with 1 μg/ml Tb4 or peptides for 24 hours • Culture supernatant samples (n=3 per experiment, total of 4 experiments) were analyzed using a collagen type IV ELISA • Data was analyzed using the t-test

Substance | Inhibits collagens (human dermal fibroblasts [1]) | Stimulates L1 production (L1) | Promotes neuron survival (neuron survival) | Inhibition of IkBa phosphorylation (NFkB signaling pathway) (IKKb; cell-free, 1.0, 0.1, and 0.01 ng/ml) | Inhibits IkBa phosphorylation (IKKb; summary of peptide uses) | Inhibits tissue damage caused by UV radiation [2] | Protects tissue from UV radiation damage [2] | Promotes neurite outgrowth (neurite outgrowth) | Stimulates Migration (cell migration) | Secretion of elastin (human dermal fibroblasts [3]) | Stimulates Elastin (human dermal fibroblasts [3]) | Protection of Fb against the cytotoxic effects of CHX (LDH) (human dermal fibroblasts [4]; 1 μg/ml, 0.002% CHX, 2 hour exposure) | Protects from cytotoxicity (human dermal fibroblasts [4]) | Stimulates collagens (human dermal fibroblasts [1]) | Inhibits apoptosis (human dermal Fb) | Suppresses inflammation [5] | Stimulation of secretion of collagens (human dermal fibroblasts [1]; human dermal fibroblasts, 1 μg/ml once/day, after 3 days of treatment) | Collagen type IV secretion ([6]; corneal epithelial cells, 1 μg/ml, 24 hours) | Stimulates collagen IV ([6]; summary of peptide uses)
Ac-Ile-Glu-Gln-Glu-Lys-Gln-Ala-Gly-Glu-Ser-OH (Ac-IEQEKQAGES-OH) [Peptide 6B] | P | U | U | may have an effect | P | U | U | U |  |  |  |  |  |  |  |  |  |  | 
H-Met-Ala-Glu-Ile-Glu-Lys-Phe-Asp-Lys-Ser-OH (H-MAEIEKFDKS-OH) [Peptide 7A] | P | U | U |  |  | U | U | U |  |  |  |  |  |  |  |  |  |  | 
H-Glu-Lys-Asn-Pro-Leu-Pro-Ser-Lys-Glu-Thr-OH (H-EKNPLPSKET-OH) [Peptide 5A] |  | U | U |  |  | U | U | U | P |  |  |  |  |  |  |  |  |  | 
Ac-Met-Ala-Glu-Ile-Glu-Lys-Phe-Asp-Lys-Ser-OH (Ac-MAEIEKFDKS-OH) [Peptide 7B] | U | U | U |  |  | U | U | U |  | stimulate | U |  |  |  |  |  |  |  | 
H-Ile-Glu-Gln-Glu-Lys-Gln-Ala-Gly-Glu-Ser-OH (H-IEQEKQAGES-OH) [Peptide 6A] | P | U | U |  |  | U | U | U |  |  |  |  |  |  |  |  |  |  | 
Ac-SDKPDMAEIEKFDKS-OH [Peptide 3B] | P | U | U |  |  | U | U | U |  |  |  | protect | P |  |  |  |  |  | 
Ac-Leu-Lys-Lys-Thr-Glu-Thr-OH (Ac-LKKTET-OH) [Peptide 1B] | P | U | U |  |  | U | U | U |  |  |  |  |  |  |  |  |  |  | 
Ac-SDKPDMAEIEKFDKSKLKKTETQ-OH [Fragment Bb] | U | U | U |  |  | U | U | U | U |  | U |  | U | U | U | U |  |  | 
Ac-Leu-Lys-Lys-Thr-Glu-Thr-Gln-OH (Ac-LKKTETQ-OH) [Peptide 4B] |  | U | U |  |  | U | U | U | P | stimulate | P |  |  |  |  |  |  |  | 
Ac-SDKPDMAEIEKFDKSKLKKTET-OH [Fragment Ab] | U | U | U |  |  | U | U | U | U |  | U |  | U | U | U | U |  |  | 
Ac-Glu-Lys-Asn-Pro-Leu-Pro-Ser-Lys-Glu-Thr-OH (Ac-EKNPLPSKET-OH) [Peptide 5B] |  | U | U |  |  | U | U | U |  |  |  |  |  | P |  |  | stimulates |  | 
H-Ser-Asp-Lys-Pro-OH (H-SDKP-OH) [Peptide 2A] | P | U | U |  |  | U | U | U |  |  |  |  |  |  |  |  |  | stimulate | P

— patent publication US20150203561A1, “BETA THYMOSIN FRAGMENTS” (REGENERX BIOPHARMACEUTICALS, INC., priority 2008, published 2015)
